Measurements taken from US12349708B2, “Use and methods of 1,3-propanediol to improve taste and/or off-taste qualities” (Primient Covation LLC, priority 2019, dated 2025).
Entries after “also recorded” stand apart in the source; their conditions may differ. Structures can show the parent of a compound that is named as a salt.

What was measured:
[1] = test system: experienced and trained panelist; assay: Sensorial description of energy drinks and additive solutions with propylene glycol or biologically-produced 1,3-propanediol (multi-sip-and-swallow taste method); conditions: for Sensorial Description: RT;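 on all read-outs here: propylene glycol or 1,3-propanediol added at 0.01, 0.1 or 1.0%, tasted by multi-sip-and-swallow in duplicate, compared with matching controls lacking either additive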
[2] = 0.05% in black tea; U.S. Pat. No. 8,685,436; cited from earlier work

## CC(O)CO (stereo not drawn) [PG, propylene glycol, reference compound]
[1]; 0.01% PG or PDO in 238 ppm sucralose (10% SE) in distilled water
  Sensorial Description: 6-7% SE, significantly less sweet
[1]; 0.01% PG or PDO in 338 ppm caffeine in distilled water (caffeine drink)
  Sensorial Description: Looked similar to Control #72.
[1]; 0.01% PG or PDO in 3,338 ppm caffeine in distilled water (caffeine shot)
  Sensorial Description: (small sip): similar to Control #65.
[1]; 0.01% PG or PDO in 10,500 ppm malic acid and 2,000 ppm sucralose in distilled water
  Sensorial Description: Less sweetness and sourness intensities (different
[1]; 0.01% PG or PDO in Bang energy drink
  Sensorial Description: Significantly less sweet and its lingering but still
[1]; 0.01% PG or PDO in Berry flavor in distilled water
  Sensorial Description: Less dry than Control #114, slight less flavor.
[1]; 0.01% PG or PDO in Monster Energy Zero Ultra
  Sensorial Description: Significant less off-taste, less sourness, significantly
[1]; 0.01% PG or PDO in Monster Energy drink
  Sensorial Description: Note: Loss of carbonation. Significantly less
[1]; 0.01% PG or PDO in NOS High Performance Energy Drink
  Sensorial Description: Significantly less sourness and flavor, less sweet.
[1]; 0.01% PG or PDO in Orange 5-hour ENERGY shot (5HE Orange)
  Sensorial Description: Significantly less flavor and bitterness, still strong
[1]; 0.01% PG or PDO in Red Bull Energy Drink
  Sensorial Description: Much better taste quality overall significantly less
[1]; 0.01% PG or PDO in Red Bull Sugar Free
  Sensorial Description: Significantly less off-tastes, still different off-taste
[1]; 0.01% PG or PDO in Rockstar Original energy drink
  Sensorial Description: Clearer off-flavor than sweet/sour, less sourness but
[1]; 0.01% in 2,000 ppm sucralose in distilled water
  reduction of sweetness and lingering at 1st half of the taste time: lingering, ~40% less at 1st half of the taste time,
[1]; 0.1% PG or PDO in 238 ppm sucralose (10% SE) in distilled water
  Sensorial Description: ~5-6% SE, slightly less sweetness
[1]; 0.1% PG or PDO in 2,000 ppm sucralose in distilled water
  Sensorial Description: (small sip): Less overall sweet quality including 2nd
[1]; 0.1% PG or PDO in 3,338 ppm caffeine in distilled water (caffeine shot)
  Sensorial Description: (small sip): similar to Control #65.
[1]; 0.1% PG or PDO in Berry 5-hour ENERGY shot (5HE Berry)
  Sensorial Description: Significantly less sweet and aftertaste and sweet
[1]; 0.1% PG or PDO in Berry flavor in distilled water
  Sensorial Description: Less dry than 0.01% PG, slight less flavor.
[1]; 0.1% PG or PDO in Monster Energy Zero Ultra
  Sensorial Description: More smooth tasting quality, less sourness, no bitter,
[1]; 0.1% PG or PDO in Monster Energy drink
  Sensorial Description: Note: Loss of carbonation. Similar carbonic acid off-
[1]; 0.1% PG or PDO in NOS High Performance Energy Drink
  Sensorial Description: No bitterness, smoother, still flavor and sweet, less
[1]; 0.1% PG or PDO in Orange 5-hour ENERGY shot (5HE Orange)
  Sensorial Description: Less flavor, no bitterness, still strong sourness but less
[1]; 0.1% PG or PDO in Red Bull Energy Drink
  Sensorial Description: Note: Loss of carbonation. Medium flavor level, less
[1]; 0.1% PG or PDO in Red Bull Sugar Free
  Sensorial Description: Flatter, smoothness, still different off-taste as 0.01%
[1]; 0.1% in 2,000 ppm sucralose in distilled water
  reduction of overall sweet quality: half of tasting time, ~10-20% less than 0.01% PG,
[1]; 1.0% PG or PDO in 79 ppm sucralose (5% SE) in distilled water
  Sensorial Description: Weak PG taste note, similar sweet quality.
[1]; 1.0% PG or PDO in 238 ppm sucralose (10% SE) in distilled water
  Sensorial Description: Slight PG taste, sweet smoother
[1]; 1.0% PG or PDO in 338 ppm caffeine in distilled water (caffeine drink)
  Sensorial Description: Worst quality, more bitterness, medium intensity,
[1]; 1.0% PG or PDO in 2,000 ppm sucralose in distilled water
  Sensorial Description: (small sip): Similar to 0.1% PG. Repeated tests
[1]; 1.0% PG or PDO in 3,338 ppm caffeine in distilled water (caffeine shot)
  Sensorial Description: (small sip): similar to Control #65, no PG taste
[1]; 1.0% PG or PDO in 10,500 ppm malic acid and 2,000 ppm sucralose in distilled water
  Sensorial Description: PF taste note, similar qualities as 0.1% PG.
[1]; 1.0% PG or PDO in 10,500 ppm malic acid, 2,000 ppm sucralose, 3,338 ppm caffeine in distilled water
  Sensorial Description: Stronger, thinner sourness quality.
[1]; 1.0% PG or PDO in B vitamins at 5-hour Energy shot concentrations in distilled water
  Sensorial Description: PG flavor taste, similar other qualities as Control
[1]; 1.0% PG or PDO in Berry 5-hour ENERGY shot (5HE Berry)
  Sensorial Description: Began to show more sourness across the taste, still
[1]; 1.0% PG or PDO in Berry flavor in distilled water
  Sensorial Description: Less dry than Control #114, slight less flavor.
[1]; 1.0% PG or PDO in Monster Energy Zero Ultra
  Sensorial Description: Very smooth, flat tasting quality of basic tastes, no
[1]; 1.0% PG or PDO in Monster Energy drink
  Sensorial Description: Note: Little carbonation. Little or no sourness, very
[1]; 1.0% PG or PDO in NOS High Performance Energy Drink
  Sensorial Description: Smoother than 0.1% PG, low-medium flavor, low
[1]; 1.0% PG or PDO in Orange 5-hour ENERGY shot (5HE Orange)
  Sensorial Description: Less flavor, sourness and sweetness, still moderate
[1]; 1.0% PG or PDO in Red Bull Energy Drink
  Sensorial Description: Note: significantly less or no carbonation. Low
[1]; 1.0% PG or PDO in Red Bull Sugar Free
  Sensorial Description: Medium off-flavor (not described) in middle tasting
[1]; 1.0% PG or PDO in Rockstar Original energy drink
  Sensorial Description: Slight off-flavor (seems like PDO's off flavor), little
[1]; 2,000 ppm, 238 ppm, or 70 ppm sucralose in distilled water
  reduction in unpleasant taste or masking of off-taste: No reduction in unpleasant taste, or masking of off-taste
[1]; 3,382 ppm or 338 ppm caffeine in distilled water
  reduction of unpleasant taste / masking of bitterness: did not reduce the unpleasant taste, or mask the bitterness
[1]; aqueous B vitamins at concentrations comparable to 5-hour ENERGY shots
  taste modulation of B vitamins: did not positively modulate
[1]; berry flavor in distilled water
  modulation of berry flavor: Neither biologically-produced 1,3-propanediol, nor propylene glycol modulated the flavor
[1]; malic acid at 10,500 ppm in distilled water
  taste modulation or sour masking: no positive taste modulation or sour masking effect
[1]; separate caffeine, malic acid, and sucralose solutions at mega-dose levels
  taste modulation of single additive solutions: did not positively modulate the taste or mask the bitter, off, or sour tastes; also recorded: neither propylene glycol, nor biologically-produced 1,3-propanediol modulated the taste

## COc1cc([C@@H]2CC(=O)c3c(O)cc(O)cc3O2)ccc1O [homoeriodictyol disodium salt]
[2]
  perceived bitterness: reduced the perceived bitterness

## O=C(O)CC(O)C(=O)O (stereo not drawn) [malic acid]
[1]; control: 10,500 ppm malic acid in distilled water, no PG or PDO
  Sensorial Description: Extreme sourness, clean sourness quality, slightly dry

## OC[C@H]1O[C@H](O[C@]2(CCl)O[C@H](CCl)[C@@H](O)[C@@H]2O)[C@H](O)[C@@H](O)[C@H]1Cl [sucralose]
[1]; control: 79 ppm sucralose in distilled water, no PG or PDO
  Sensorial Description: Comfortably 5% SE sweet, good sweet quality
[1]; control: 238 ppm sucralose in distilled water, no PG or PDO
  Sensorial Description: 10% SE, delayed onset of sweetness, very sweet
[1]; control: 2,000 ppm sucralose in distilled water, no PG or PDO
  Sensorial Description: (small sip): Extremely sweet, extremely strong sweet
